From patent EP0019764A1, “Trans-3-(4'-tert.-butyl-cyclohexyl-1')-2-methyl-1-(3'-methylpiperidino, 3',5'-dimethylpiperidino and 2', 6'-dimethylmorpholino) propane, process for their pure preparation, antimycotic agents containing them and their utilisation” (BASF Aktiengesellschaft, priority 1979, dated 1980) come the findings set out here.

As a reminder, the LD50 is the dose expected to kill half of the subjects tested.

For series [1], the system named is Epidermophyton floccosum. Kind of series: agar dilution test, minimal inhibitory concentration. The class given is cell-based. Particulars: Stamm No 157/M, Agardilutionstest, read-out: MHK-Werte. The source says:
(§1) Die Wirkung gegenüber Mikroorganismen kann nach Methoden, wie sie beispielsweise in P. Klein, Bakteriologische Grundlagen der chemotherapeutischen Laboratoriumspraxis, Springer-Verlag Berlin, 1957, beschrieben sind, aufgezeigt werden.
(§2) Beispielsweise wurde geprüft, welche minimalen Hemmkonzentrationen (MHK-Werte) im Agardilutionstest gegen pathogene Pilze erreicht werden können.
(§3) In der folgenden Tabelle 1 sind die Ergebnisse zusammengefaßt: […]
Background: In agar dilution, organisms are placed on agar that contains the substance at set levels.

Series [2] concerns Microsporum canis. The series is described as above. The class given is cell-based. As to conditions: Agardilutionstest, read-out: MHK-Werte.
Source text: as §1, §2, §3

Series [3] deals with Microsporum ferrugineum. Described as above. In kind it is cell-based. As to conditions: Stamm No 5/M, Agardilutionstest, read-out: MHK-Werte.
Source text: as §1, §2, §3

In series [4] the test system is Microsporum gypseum. The series is described as above. The class given is cell-based. As to conditions: Nannizzia gypsea; Stamm No 156/M; Agardilutionstest; read-out: MHK-Werte.
Source text: as §1, §2, §3

The test system of series [5] is Trichophyton mentagrophytes. The description is as above. The class given is cell-based. As to conditions: Agardilutionstest, read-out: MHK-Werte.
Source text: as §1, §2, §3

Series [6] deals with Trichophyton rubrum. The series is described as above. As to conditions: Stamm No 158/M, Agardilutionstest, read-out: MHK-Werte. The class given is cell-based.
Source text: as §1, §2, §3

In series [7] the test system is Trichophyton schoenleinii. The description is as above. As to conditions: Stamm No 9/M, Agardilutionstest, read-out: MHK-Werte. The class given is cell-based.
Source text: as §1, §2, §3

The test system of series [8] is Trichophyton violaceum. The description is as above. In kind it is cell-based. Particulars: Stamm No 10/M, Agardilutionstest, read-out: MHK-Werte.
Source text: as §1, §2, §3

Series [9] can be described thus: acute oral toxicity (LD50) in the mouse. As to conditions: in vivo, Maus per os. The text has this: Aus diesen LD50-Werten ergibt sich für die topische und systemische Anwendung nach oraler Gabe eine genügend therapeutische Breite.
Series [10] deals with humanpathogenen Pilzen und Hefen aus dem Verwandtschaftskreis der Dermatophyten. Nature of the series: inhibitory effect on microorganisms, trans compound compared with cis compound. In kind it is cell-based. Particulars: compared with the respective cis compound; Hemmeffekte gegenüber Mikroorganismen. The text has this: Aufgrund der überraschenden Feststellung, daß die reinen trans-Verbindungen gegenüber humanpathogenen Pilzen und Hefen aus dem Verwandtschaftskreis der Dermatophyten um das 10-fache und noch darüber hinaus stärker wirksam sind als die cis-Verbindungen, ist es eine Aufgabe der Erfindung, Verfahren zur Herstellung der reinen trans-Verbindungen (1) bis (3) zu entwickeln.
überraschenderweise sind die reinen trans-Verbindungen fast ausschließlich Träger der guten antimykotischen Wirkung. Verglichen mit der jeweiligen cis-Verbindung und bezogen auf die Hemmeffekte gegenüber Mikroorganismen, sind die trans-Verbindungen (1), (2) und (3) 10-fach und noch darüber hinaus stärker wirksam. Das bedeutet beispielsweise bei etwa gleichen Toxizitätswerten eine wesentliche Verbesserung der therapeutischen Breite.

≈ marks a conversion by molar mass, not a printed value. Where two headings read alike, the source gives them in different places.

Consider `CC1CCCN(CC(C)C[C@H]2CC[C@H](C(C)(C)C)CC2)C1` (relative stereo) [(1) trans, trans-3-(4'-tert.-Butyl-cyclohexyl-1')-2-methyl-1-(3'--methyl-1'-piperidino)-propan], for which the MIC in series [1] stood at 0.0312 µg/mL (≈ 0.106 µM); in [2] (Stamm No 155/M), 0.0156 µg/mL (≈ 0.0531 µM); in series [2] (Stamm No 167/M), 0.0312 µg/mL (≈ 0.106 µM); in series [2] (Stamm No 168/M), 0.0156 µg/mL (≈ 0.0531 µM); in series [2] (Stamm No 169/M), 0.0625 µg/mL (≈ 0.213 µM); in series [3], 0.0078 µg/mL (≈ 0.0266 µM). Besides, the MIC was 0.0156 µg/mL (≈ 0.0531 µM) in series [4]; 0.0312 µg/mL (≈ 0.106 µM) in [5] (Stamm No 19/M); 0.0312 µg/mL (≈ 0.106 µM) in series [5] (Stamm No 21/M); 0.0078 µg/mL (≈ 0.0266 µM) in series [5] (Stamm No 159/M); 0.0312 µg/mL (≈ 0.106 µM) in [5] (Stamm No 160/M); 0.0156 µg/mL (≈ 0.0531 µM) in series [5] (Stamm No 170/M). Besides, the MIC in series [5] (Stamm No 171/M) came to 0.0156 µg/mL (≈ 0.0531 µM); in series [5] (Stamm No 172/M), 0.0625 µg/mL (≈ 0.213 µM); in series [5] (Stamm No 173/M), 0.0312 µg/mL (≈ 0.106 µM); in [5] (Stamm No 174/M) it was 0.0312 µg/mL (≈ 0.106 µM); in [6], 0.0312 µg/mL (≈ 0.106 µM); in [7] it was 0.0625 µg/mL (≈ 0.213 µM). Besides, the MIC in [8] amounted to 0.0156 µg/mL (≈ 0.0531 µM). For the same molecule, the LD50 in series [9] is 305 mg/kg. The “stärker wirksam als die cis-Verbindung” value in [10] is at least 10 fach.
`Clc1ccccc1C(c1ccccc1)(c1ccccc1)n1ccnc1` [Clotrimazol, reference compound]: the MIC in series [1] was found to be 0.32 µg/mL (≈ 0.928 µM); in series [2] (Stamm No 155/M) it was 0.32 µg/mL (≈ 0.928 µM); in series [2] (Stamm No 167/M) it was 0.64 µg/mL (≈ 1.86 µM); in series [2] (Stamm No 168/M) it was 0.16 µg/mL (≈ 0.464 µM); in series [2] (Stamm No 169/M), 0.64 µg/mL (≈ 1.86 µM); in series [3] it was 0.16 µg/mL (≈ 0.464 µM). Moreover, the MIC in series [4] stood at 0.64 µg/mL (≈ 1.86 µM); in series [5] (Stamm No 19/M), 1.28 µg/mL (≈ 3.71 µM); in [5] (Stamm No 21/M) it was 1.28 µg/mL (≈ 3.71 µM); in [5] (Stamm No 159/M) it was 0.32 µg/mL (≈ 0.928 µM); in series [5] (Stamm No 160/M), 0.64 µg/mL (≈ 1.86 µM); in series [5] (Stamm No 170/M), 0.32 µg/mL (≈ 0.928 µM). Also, the MIC in series [5] (Stamm No 171/M) is 0.32 µg/mL (≈ 0.928 µM); in [5] (Stamm No 172/M) it was 0.64 µg/mL (≈ 1.86 µM); in series [5] (Stamm No 173/M) it was 0.64 µg/mL (≈ 1.86 µM); in [5] (Stamm No 174/M) it was 1.28 µg/mL (≈ 3.71 µM); in series [6], 1.28 µg/mL (≈ 3.71 µM); in [7], 0.64 µg/mL (≈ 1.86 µM). Besides, the MIC in series [8] worked out at 0.16 µg/mL (≈ 0.464 µM).
On to `CC(CN1C[C@@H](C)O[C@@H](C)C1)C[C@H]1CC[C@H](C(C)(C)C)CC1` (relative stereo) [(3) trans, trans-3-(4'-tert.-Butyl-cyclohexyl-1')-2-methyl-1--(2',6'-cis-dimethylmorpholino)-propan], for which the MIC in series [1] was 0.0312 µg/mL (≈ 0.101 µM); in [2] (Stamm No 155/M) it was 0.0312 µg/mL (≈ 0.101 µM); in series [2] (Stamm No 167/M), 0.0312 µg/mL (≈ 0.101 µM); in series [2] (Stamm No 168/M) it was 0.0156 µg/mL (≈ 0.0504 µM); in series [2] (Stamm No 169/M), 0.0312 µg/mL (≈ 0.101 µM); in series [3], below 0.0078 µg/mL. The MIC in series [4] is 0.0156 µg/mL (≈ 0.0504 µM); in series [5] (Stamm No 19/M) it was 0.0312 µg/mL (≈ 0.101 µM); in series [5] (Stamm No 21/M) it was 0.0625 µg/mL (≈ 0.202 µM); in series [5] (Stamm No 159/M), below 0.0078 µg/mL; in [5] (Stamm No 160/M), 0.0625 µg/mL (≈ 0.202 µM); in [5] (Stamm No 170/M), 0.0156 µg/mL (≈ 0.0504 µM). Besides, the MIC was 0.0156 µg/mL (≈ 0.0504 µM) in [5] (Stamm No 171/M); 0.0625 µg/mL (≈ 0.202 µM) in [5] (Stamm No 172/M); 0.0625 µg/mL (≈ 0.202 µM) in series [5] (Stamm No 173/M); 0.0156 µg/mL (≈ 0.0504 µM) in series [5] (Stamm No 174/M); 0.0625 µg/mL (≈ 0.202 µM) in [6]; 0.0156 µg/mL (≈ 0.0504 µM) in series [7]. The MIC in series [8] amounted to 0.0156 µg/mL (≈ 0.0504 µM). In [9], this molecule registered an LD50 of 2250 mg/kg. In addition, the “stärker wirksam als die cis-Verbindung” value in series [10] was at least 10 fach.
In the case of `CC1CC(C)CN(CC(C)C[C@H]2CC[C@@H](C(C)(C)C)CC2)C1` (relative stereo) [(2) cis, cis- und trans-3-(4'-tert.-Butyl-cyclohexyl-1')-2--methyl-1-(3',5'-dimethyl-1'-piperidino)-propan], the MIC amounted to 0.0312 µg/mL (≈ 0.101 µM) in series [2] (Stamm No 168/M); 0.0625 µg/mL (≈ 0.203 µM) in series [3]; 0.25 µg/mL (≈ 0.813 µM) in [5] (Stamm No 19/M); 0.0156 µg/mL (≈ 0.0507 µM) in series [5] (Stamm No 159/M); 0.0625 µg/mL (≈ 0.203 µM) in series [5] (Stamm No 170/M); 0.0625 µg/mL (≈ 0.203 µM) in series [5] (Stamm No 171/M). Also, the MIC in series [5] (Stamm No 173/M) came out at 0.25 µg/mL (≈ 0.813 µM); in series [7], 0.0625 µg/mL (≈ 0.203 µM); in [8], 0.0625 µg/mL (≈ 0.203 µM).
